Experiments:
[1] = tested on: Candida albicans IFO 1270; test: In vitro antimycotic activity on Candida albicans; type: cell-based; settings: IFO1270, 10 (ppm), SGB, 37° C., 48 hours, turbidity at 650 nm, read-out: Antimycotic activity (growth inhibitory rate), C.albicans
Description: 3-1 In vitro antimycotic activity on Candida albicans
Candida albicans IFO 1270 pre-cultured on a Sabouraud's glucose agar (SGA) plate medium at 37° C. […] was suspended in a sterilized physiological salt solution. The number of fungi in the resulting suspension was counted with a globulimeter, and adjusted so as to be 1×10^7 cell/ml with a sterilized physiological salt solution. This solution was used as an inoculum solution. Thereafter, 0.1 ml of this solution and 0.1 ml of a dimethyl sulfoxide (DMSO) solution of the test compound were added to 9.8 ml of Sabouraud's glucose broth (SGB), and shake-cultured at 37° C. for 48 hours. After culture, the medium turbidity was measured at 650 nm, and the growth-inhibitory rate of the fungus was calculated according to the following equation.
Growth inhibitory rate (%)=(1-W/Y)×100
Y: Medium turbidity of DMSO control group
W: Medium turbidity of test compound group
From this inhibitory rate, the antimycotic activity was shown by the symbols A to D. The test results of the test compounds are shown in Table 4.

[2] = tested on: Aspergillus fumigatus TIMM 0063; test: In vitro antimycotic activity on Aspergillus fumigatus; type: cell-based; settings: TIMM0063, 10 (ppm), Casitone agar, 37° C., 48 hours, read-out: Antimycotic activity (growth inhibitory rate), A.fumigatus
Description: 3-2 In vitro antimycotic activity on Aspergillus fumigatus.
To Aspergillus fumigatus TIMM 0063 precultured at 37° C. for 48 hours on a potato dextrose agar (PDA) slant medium was added a sterilized physiological salt solution containing 0.1%(W/V) Tween 80. After conidia were made free from the solution, the solution was filtered through a sterilized two-sheet gauze to remove the mycelium mass. The number of the conidia in the resulting suspension was counted with a globulimeter and adjusted so as to be 1×10^5 conidia/ml with a sterilized physiological salt solution containing 0.1%(W/V) Tween 80. This solution was used as an inoculum solution. Casitone agar plate medium containing the DMSO solution of the test compound in a rate of 1% (V/V) was inoculated with the inoculum solution at four places thereof with a microplanter, and cultured with the medium allowed to stand at 37° C. for 48 hours. After culture, the diameter of the mycelium disks cultivated at the four inoculated parts was measured, and its mean value was obtained. The growth inhibitory rate was calculated according to the following equation, and the antimycotic activity was shown in the same manner as in Test Example 3-1.
Growth inhibitory rate (%)=(1-W'/Y')×100
Y': Diameter of mycelium disk of DMSO control group
W': Diameter of mycelium disk of test compound group

[3] = tested on: Trichophyton mentagrophytes IFO 5810; test: In vitro antimicrobial activity on Trichophyton mentagrophytes; type: cell-based; design: key: A: Fungus is not observed at all with the naked eye.; B: Presence of fungus is slightly observed on shaking the test tube.; C: Fungus of about less than one-fourth that of the DMSO control group is observed with the naked eye.; Fungus of about less than half that of the DMSO control group is observed with the naked eye; settings: 10 (ppm); SGB, 27° C., 7 days
Description: 3-3 In vitro antimicrobial activity on Trichophyton mentagrophytes To Trichophyton mentagrophytes IFO 5810 precultured at 27° C. for 2 to 3 weeks on a Sabouraud's glucose agar (SGA) slant medium was added a sterilized physiological salt solution containing 0.1% (W/V) Tween 80. After conidia were made free from the solution, the solution was filtered through a sterilized two-sheet gauze to remove the mycelium mass. The number of the conidia in the resulting suspension was counted with a globulimeter and adjusted so as to be 1×10^6 conidia/ml with a sterilized physiological salt solution containing 0.1%(W/V) Tween 80. This solution was used as an inoculum solution. Thereafter, 0.1 ml of this solution and 0.1 ml of the dimethyl sulfoxide (DMSO) solution of the test compound were added to 9.8 ml of Sabouraud's glucose broth (SGB), and shake-cultured at 27° C. for 7 days.

[4] = tested on: Tyromyces palustris; test: Test for wood rotting-preventing effect (mycelium growth inhibition on malt extract agar); type: cell-based; settings: 28° C.±2° C., 2 to 10 days, read-out: Rotting preventing effect (mycelium growth-inhibitory rate), TYP
Description: (§1) The following fungi were cultured in agar media, respectively, and mycelial disks on the media were stamped out together with the agar using a cork borer of 4 mm in diameter. The resulting mycelial disks on agar were used as an inoculum. Each test compound of 50 ppm was added to a malt extract agar medium and added in parts to Petri dishes. The above prepared inoculum was put on the Petri dishes and cultured at 28° C.±2° C. Two to ten days after inoculation, the diameter of the mycelial disk of each fungus was measured, and the mycelium growth-inhibitory rate was obtained according to the following equation. [formula] The mycelium growth-inhibitory rate (%) is indicated by the following symbols as a fungicidal effect on each fungus, and the results are shown in Table 2. | TYP: Tyromyces palustris

[5] = tested on: Trichoderma viride; test: as above; type: cell-based; settings: 28° C.±2° C., 2 to 10 days, read-out: Rotting preventing effect (mycelium growth-inhibitory rate), TRV
Description: as §1, with “TRV: Trichoderma viride” for “TYP: Tyromyces palustris”

[6] = tested on: Aspergillus niger; test: as above; type: cell-based; settings: 28° C.±2° C., 2 to 10 days, read-out: Rotting preventing effect (mycelium growth-inhibitory rate), ASN
Description: as §1, with “ASN: Aspergillus niger” for “TYP: Tyromyces palustris”

[7] = tested on: Rhizopus nigricans; test: as above; type: cell-based; settings: Rhizopus stolonifer, 28° C.±2° C., 2 to 10 days, read-out: Rotting preventing effect (mycelium growth-inhibitory rate), RHN
Description: as §1, with “RHN: Rhizopus nigricans” for “TYP: Tyromyces palustris”

[8] = tested on: Gibberella fujikuroi ("Bakanae" disease of rice); test: Test for rice seed-disinfecting effect; type: in vivo; settings: Fusarium fujikuroi, 504 h, seed immersion 25° C. 24 hours, three weeks after treatment, read-out: Controlling effect (control of disease), "Bakanae" disease of rice
Description: 2-1 Test for rice seed-disinfecting effect
Unhulled rice infected with Gibberella fujikuroi ("Bakanae" disease of rice) was immersed in a test compound adjusted to 1000 ppm at 25° C. for 24 hours. Water was lightly swished off the seed, which was then sowed and germinated for two days. Three weeks after treatment with the solution containing the compound, the rate of the infected seedlings was examined, and the control of disease was calculated by comparison with that of the untreated plot. The control of disease was shown as a controlling effect on the basis of the following standard.

[9] = tested on: Pseudoperonospora cubensis; test: Test for controlling effect on downy mildew of cucumber; type: in vivo; settings: 168 h, 200 ppm spray, one day before inoculation, cucumber 2-leaf stage, read-out: Controlling effect (control of disease), Downy mildew of cucumber
Description: 2-2 Test for controlling effect on downy mildew of cucumber (Pseudoperonospora cubensis) A test compound adjusted to 200 ppm was sprayed onto cucumber at the 2-leaf stage cultivated in pots. After one day, the cucumber was inoculated by spraying the zoospore suspension of Pseudoperonospora cubensis. After inoculation, the cucumber was placed in a 25° C.-humid room for 1 day and then in a greenhouse for 6 days. Thus, the cucumber was made to be infected with downy mildew. The control of disease of the test compound is calculated by comparing the degree of infection of each leaf with that in the untreated plot. The control of disease is shown as a controlling effect in the same manner as in Test Example 2-1.

[10] = tested on: Rhizoctonia solani; test: Test for controlling effect on sheath blight of rice; type: in vivo; settings: 120 h, 200 ppm spray, 24 hours after inoculation, rice 4-leaf stage, five days after inoculation, read-out: Controlling effect (control of disease), Sheath blight of rice
Description: 2-3 Test for controlling effect on sheath blight of rice (Rhizoctonia solani) Rice seedlings at the 4-leaf stage were inoculated with the mycelium of sheath blight of rice (Rhizoctonia solani). After 24 hours, a test medicine solution adjusted to 200 ppm was sprayed onto the seedlings. After air-drying, the seedlings were placed in a humid room for 24 hours where the temperature was kept at 28° C. and humidity was kept at 98%. Thereafter, the seedlings were transferred to a greenhouse, and five days after inoculation, the degree of infected area was examined. The control of disease was calculated by comparison with that in the untreated plot. The control of disease is shown as a controlling effect in the same manner as in Test Example 2-1.

Structure (SMILES)	inhibition of growth at 10 µg/mL [1]	inhibition of growth at 10 µg/mL [2]	Antimycotic activity (degree of growth, naked eye), T.mentagrophytes [3]	inhibition at 50 ppm [4]	inhibition at 50 ppm [5]	inhibition at 50 ppm [6]	inhibition at 50 ppm [7]	pest or weed control at 1000 ppm [8]	pest or weed control at 200 ppm [9]	pest or weed control at 200 ppm [10]
CC(C)Oc1nsc(SCOCC#CI)c1C#N [Compound 56]	100%	100%	A	–	–	–	–	–	–	–
CC(OCC#CI)Oc1nsc(N(C)C)c1C#N (stereo not shown) [Compound 123]	100%	100%	A	–	–	–	–	–	–	–
CCSc1snc(OCOC(C)(C)C#CI)c1C#N [Compound 101]	100%	100%	A	–	–	–	–	–	–	–
CCS(=O)(=O)c1snc(OCCC#CI)c1C#N [Compound 78]	–	–	–	95 to 100%	95 to 100%	95 to 100%	95 to 100%	95 to 100%	80 to 94%	95 to 100%
CC(OCC#CI)Sc1snc(OC(F)F)c1C#N (stereo not shown) [Compound 127]	–	–	–	95 to 100%	95 to 100%	95 to 100%	95 to 100%	95 to 100%	95 to 100%	95 to 100%
CC(C)Sc1snc(OCOCC#CI)c1C#N [Compound 88]	100%	100%	A	–	–	–	–	–	–	–
CSc1snc(OCOC(C)C#CI)c1C#N (stereo not shown) [Compound 110]	–	–	–	95 to 100%	95 to 100%	95 to 100%	95 to 100%	95 to 100%	95 to 100%	95 to 100%
COC(=O)Sc1snc(OCC#CI)c1C#N [Compound 20]	–	–	–	95 to 100%	95 to 100%	80 to 94%	60 to 79%	80 to 94%	95 to 100%	60 to 79%
CCSc1snc(OCCC#CI)c1C#N [Compound 71]	100%	100%	A	–	–	–	–	–	–	–
CC(C)COc1snc(OCC#CI)c1C#N [Compound 29]	100%	100%	A	–	–	–	–	–	–	–
CC(C)(C#CI)OCOc1nsc(S(C)(=O)=O)c1C#N [Compound 103]	–	–	–	95 to 100%	95 to 100%	95 to 100%	80 to 94%	95 to 100%	95 to 100%	95 to 100%
COc1nsc(OCCC#CI)c1C#N [Compound 80, 3-methoxy-4-cyano-5-(4-iodo-3-butynyloxy)isothiazole]	–	–	–	95 to 100%	95 to 100%	95 to 100%	95 to 100%	95 to 100%	95 to 100%	80 to 94%
CC(C)Oc1nsc(OCCC#CI)c1C#N [Compound 83]	100%	100%	A	–	–	–	–	–	–	–
N#Cc1c(OCC#CI)nsc1N1CCOCC1 [Compound 35]	–	–	–	95 to 100%	95 to 100%	95 to 100%	80 to 94%	80 to 94%	95 to 100%	80 to 94%
N#Cc1c(OCOCC#CI)nsc1SCOCC#CI [Compound 141]	100%	100%	A	–	–	–	–	–	–	–

Reference: US5578622A, “Isothiazole derivatives and their uses” (Asamura Patent Office, priority 1994, dated 1996)
